Patent US5854010A, “Bioassay for detecting 2,3,7,8-tetrachlorodibenzo-para-dioxin and TCDD-like compounds and novel recombinant cell line useful therefor” (priority 1997, dated 1998)
Where two headings read alike, the source gives them in different places.

Legend:
[1] = test system: mouse hepatoma Hepa1c1c7 cells (wild type); test: TCDD-inducible luciferase activity, transient transfection with pGudLuc1.0 (lacks DREs); type: cell-based
Procedure: (§1) In general, the expression vectors pGudLuc1.0 and pGudLuc1.1 were prepared as follows. A 1330-bp HindIII fragment or an 1810-bp HindIII fragment isolated from the plasmid, pMpap1.0 or pMpap1.1, respectively (see, El-Fouly et al., supra), was subcloned into the HindIII site immediately upstream of the luciferase gene in the plasmid pGL2-basic (purchased from Promega).
More specifically, the following cells were obtained from the source indicated. Wild-type and AhR-defective (BPRc1 and TAO, respectively) mouse hepatoma (Hepa1c1c7) cells (Hepa1), derived from a C57B1 mouse liver tumor, were obtained from J. P. Whitlock, Jr. (Stanford University). These cells were grown as previously described by Miller et al. in "Biochemical and Genetic Analysis of Variant Mouse Hepatoma Cells Defective in the Induction of Benzo(a)pyrene Metabolizing Enzyme Activity", J. Biol. Chem., Vol. 258, pp. 3523-3527 (1983). […]
(§2) Using the stabilized luciferase assay system (purchased from Promega), luciferase activity in an aliquot of the cleared lysed cell supernatant (20 μl) was determined by mixing it with 100 µl of luciferase assay reagent (purchased from Promega) and measuring the resulting luminescence in a Turner Luminometer or Dynatech ML3000 microplate luminometer (light output was integrated over 1 minute after a delay time of 30 seconds).
(§3) Using a microplate adaptation of the method reported by Bradford in "A Rapid Sensitive Method for the Quantitation of Microgram Quantities of Protein Utilizing the Principle of Protein-Dye Binding", Anal. Biochem., […], pp. 248-254 (1976), luciferase activity was standardized to the protein concentration of the supernatant (with bovine serum albumin as the protein standard). Because of instrument differences in luminescence measurement and data output, luciferase activity was determined as relative light units (RLU) per microgram of protein, which was converted to milligram of protein as reported in the Tables below.

H1L1.1 cells = test: Time course of luciferase induction by TCDD (FIG. 2); type: cell-based, mouse; settings: 1 nM TCDD in DMSO
Procedure: Specifically, with respect to the graph of FIG. 2, the time course of luciferase induction by TCDD was examined in order to determine the optimal time period for measurement of luciferase activity in the H1L1.1 cells. In these experiments, the cells were treated with 1 nM of TCDD solubilized in DMSO or with only DMSO. The luciferase activity was determined as described above at various times up to 32 hours post exposure. Values represent the mean ± the standard evaluation of at least triplicate determinations.

[2] = test system: human hepatoma HepG2 cells; test: TCDD-inducible luciferase activity, transient transfection with pGudLuc1.1; type: cell-based
Procedure: as §1
(§4) More specifically, the following cells were obtained from the source indicated. Wild-type and AhR-defective (BPRc1 and TAO, respectively) mouse hepatoma (Hepa1c1c7) cells (Hepa1), derived from a C57B1 mouse liver tumor, were obtained from J. P. Whitlock, Jr. (Stanford University). These cells were grown as previously described by Miller et al. in "Biochemical and Genetic Analysis of Variant Mouse Hepatoma Cells Defective in the Induction of Benzo(a)pyrene Metabolizing Enzyme Activity", J. Biol. Chem., Vol. 258, pp. 3523-3527 (1983). Additionally, mouse hepatoma (MLE/BV) cells, derived from a spontaneously immortalized C3H/HeN mouse liver cell, were obtained from B. V. Madhukar (Indiana University School of Medicine, Indianapolis, Ind.) and were grown as described for the Hepa1 cells. Rat hepatoma (H4IIe) cells, guinea pig intestinal adenocarcinoma (GPC16) cells, hamster lung (AHL) cells, human hepatoma (HepG2) cells, human breast tumor (MCF7) cells, and human intestinal epithelial (LS180) cells were obtained from the American Type Culture Collection (Rockville, Md.). Until transfection, all of the cells were maintained according to their respective cell-type-specific culture protocols.
(§5) Transfection was accomplished as follows. Using polybrene as previously described by Helferich et al. in "Photooxidized Products of Tryptophan Can Act as Dioxin Agonists", Mol. Pharmacol., Vol. 40, pp. 674-678 (1991), plates of cells (approximately 80% confluent) were transiently transfected with the desired plasmid (15 μg). Then, the transfected cells were allowed to grow for 48 hours, followed by the addition of either DMSO (1 μl/ml) or TCDD (1 nM) solubilized in DMSO, which was followed by incubation for 24 hours. Next, the plates were transferred onto ice, and the media were removed, after which the plates were rinsed twice with cold PBS. Then, 200 μl of luciferase lysis buffer (purchased from Promega) was used to lyse the cells. The lysed cell samples were collected and transferred into a microfuge tube. Cell debris was pelleted by centrifugation, and the supernatants were collected. The supernatant samples were assayed for TCDD-inducible luciferase activity in the following manner.
as §2, §3

[3] = test system: human intestinal epithelial LS180 cells; test: as above; type: cell-based
Procedure: as §1, §4, §5, §2, §3

[4] = test system: guinea pig intestinal adenocarcinoma GPC16 cells; test: as above; type: cell-based
Procedure: as §1, §4, §5, §2, §3

rat hepatoma H4IIE cells = test: as above; type: cell-based
Procedure: as §1, §4, §5, §2, §3

hamster lung AHL cells = test: as above; type: cell-based
Procedure: as §1, §4, §5, §2, §3

[5] = test system: mouse hepatoma Hepa1c1c7 cells (wild type); test: as above; type: cell-based
Procedure: as §1, §4, §5, §2, §3

[6] = test system: human breast tumor MCF7 cells; test: as above; type: cell-based
Procedure: as §1, §4, §5, §2, §3

[7] = test system: Rat H4IIE cells, CYP1A1/EROD; settings: Table 3 comparison, Kennedy et al., cited from earlier work
G16L1.1c8 cells = test: TCDD-inducible luciferase activity, stably transfected clonal cell line; type: cell-based, guinea pig; settings: 24 h
Procedure: as §2
as §3, with “below. […]” for “below.”
More particularly, isolated clones were grown until confluent, and then incubated in the absence or presence of TCDD (1 nM solubilized in DMSO) for 24 hours. After the incubation, luciferase activity was determined as described above.

In the case of Clc1cc2c(cc1Cl)Oc1cc(Cl)c(Cl)cc1O2 [TCDD, 2,3,7,8-tetrachlorodibenzo-para-dioxin], the “Luciferase activity, TCDD in DMSO” value ([1]; Luc1.0, TCDD 1 nM, 24 h, mean of triplicate transfections) is reported as 0.1 RLU/mg protein, the fold induction at 0.001 µM ([1]; Mus musculus, Hepa-1c1c7, Luc1.0, TCDD 1 nM vs DMSO) is reported as 1 and the “Induction of luciferase activity” value ([1]; pGudLuc1.0, TCDD 1 nM) is reported as “failed to induce luciferase activity”. The “Time at which TCDD-inducible luciferase activity was detectable” value (H1L1.1 cells) was 2 h, the “Time by which luciferase activity decreased to a stable activity” value (H1L1.1 cells) was at most 12 h and the “Time of peak TCDD-inducible luciferase activity” value (H1L1.1 cells) was “about 4 hours”. The fold induction ([2]; Homo sapiens, HepG2, Luc1.1, TCDD 1 nM vs DMSO) was 66.3, the “Luciferase activity, TCDD in DMSO” value ([2]; Luc1.1, TCDD 1 nM, 24 h) was 690 RLU/mg protein and the fold induction ([3]; Homo sapiens, LS180, Luc1.1, TCDD 1 nM vs DMSO) was 18.6. For the same compound, the “Luciferase activity, TCDD in DMSO” value ([3]; Luc1.1, TCDD 1 nM, 24 h) was 26.0 RLU/mg protein, the fold induction ([4]; Cavia porcellus, Luc1.1, TCDD 1 nM vs DMSO) was 7.6 and the “Luciferase activity, TCDD in DMSO” value ([4]; Luc1.1, TCDD 1 nM, 24 h) was 28.8 RLU/mg protein. The “Luciferase activity, TCDD in DMSO” value (rat hepatoma H4IIE cells; Luc1.1, TCDD 1 nM, 24 h) was 34.2 RLU/mg protein, the fold induction (rat hepatoma H4IIE cells; Rattus norvegicus, H4IIE, Luc1.1, TCDD 1 nM vs DMSO) was 28.5 and the “Luciferase activity, TCDD in DMSO” value (hamster lung AHL cells; Luc1.1, TCDD 1 nM, 24 h) was 174 RLU/mg protein. For the same compound, the fold induction (hamster lung AHL cells; Mesocricetus auratus, Luc1.1, TCDD 1 nM vs DMSO) was 5.8, the fold induction ([5]; Luc1.1, TCDD 1 nM vs DMSO, 0.001 µM) was 60 Fold and the “Luciferase activity, TCDD in DMSO” value ([5]; Luc1.1, TCDD 1 nM, 24 h, mean of triplicate transfections) was 12.1 RLU/mg protein. For the same compound, the fold induction ([5]; Mus musculus, Hepa-1c1c7, Luc1.1, TCDD 1 nM vs DMSO, read-out: Fold induction) was 60.5, the fold induction ([6]; Homo sapiens, MCF7, Luc1.1, TCDD 1 nM vs DMSO) was 33.4 and the “Luciferase activity, TCDD in DMSO” value ([6]; Luc1.1, TCDD 1 nM, 24 h) was 63.5 RLU/mg protein. For the same compound, the “MDL (minimal detection level)” value [7] was 10 pM, the EC50 ([7]; read-out: ED50 (the source's name)) was 0.1 nM and the fold induction (G16L1.1c8 cells; Cavia porcellus, TCDD 1 nM vs DMSO) was 25. The “Luciferase activity, TCDD in DMSO” value (G16L1.1c8 cells; TCDD 1 nM, mean ± SD of triplicate assays) was 0.76 ± 0.03 RLU/mg protein.
